These results are taken from ChEMBL document CHEMBL1136828, “Macrocyclic inhibitors of the bacterial cell wall biosynthesis enzyme MurD” (Bioorg Med Chem Lett, 2003).

Structures are written as SMILES.

The nature of this experiment: Inhibitory activity against enzyme MurD isolated from Escherichia coli.

Regarding `C[C@@H]1NC(=O)[C@H](CO)NC(=O)CCCCCC[C@@H](C(=O)O)NC1=O`, inhibition was half-maximal at 2.3 µM (IC50). In turn, `C[C@@H]1NC(=O)CCCCCCC[C@@H](C(=O)O)NC(=O)[C@H](C)NC1=O` had an IC50 of 3.2 µM. `C[C@@H]1NC(=O)CCCCCC[C@@H](C(=O)O)NC(=O)[C@H](C)NC1=O` registered an IC50 of 5.1 µM. For `C[C@@H]1NC(=O)CCCCCCC[C@H](C(=O)O)NC(=O)[C@H](C)NC1=O` the value was 1.5 µM; for `C[C@@H]1NC(=O)[C@H](COC(C)(C)C)NC(=O)CCCCCC[C@H](C(=O)O)NC1=O`, 1.9 µM. `C[C@@H]1NC(=O)CCCCCC[C@H](C(=O)O)NC(=O)[C@H](C)NC1=O` yielded an IC50 of 1.5 µM. This IC50 and that of the compound before are within 1.5-fold of each other. `C[C@@H]1NC(=O)[C@H](COC(C)(C)C)NC(=O)CCCCCC[C@@H](C(=O)O)NC1=O`: the IC50 was 9 µM. Compared with the last compound, the IC50 is about 6-fold higher.

The compound `C[C@@H]1NC(=O)[C@H](CO)NC(=O)CCCCCC[C@H](C(=O)O)NC1=O` displayed a half-maximal inhibitory concentration (IC50) of 0.7 µM.

As a reminder, the IC50 is the point on the concentration scale where inhibition reaches its midpoint. Low values mean higher potency, high ones lower potency.
